Entries after “also recorded” stand apart in the source; their conditions may differ.
What was measured:
MCF7 cells [1] = experiment: Cell cycle analysis by flow cytometry; format: cell-based, human
HT29 (colon cancer) = experiment: NCI 60-cell one-dose antiproliferative screen; format: cell-based, human; conditions: one dose 10 μM
EKVX (NSC lung cancer) = experiment: NCI 60-cell one-dose antiproliferative screen; format: cell-based, human; conditions: one dose 10 μM
HCT-15 (colon cancer) = experiment: NCI 60-cell one-dose antiproliferative screen; format: cell-based, human; conditions: one dose 10 μM
[2] = test system: NCI-H522 (NSC lung cancer); experiment: NCI 60-cell one-dose antiproliferative screen; format: cell-based, human; conditions: one dose 10 μM
[3] = test system: 60 human tumor cell lines; experiment: NCI 60-cell one-dose antiproliferative screen, whole panel; format: cell-based; conditions: Homo sapiens, 60 cell, read-out: Mean inhibition (mean GI%)
DU-145 (prostate cancer) = experiment: NCI 60-cell one-dose antiproliferative screen; format: cell-based, human; conditions: one dose 10 μM
786-0 (renal cancer) = experiment: NCI 60-cell one-dose antiproliferative screen; format: cell-based, human; conditions: one dose 10 μM
[4] = test system: A549/ATCC (NSC lung cancer); experiment: NCI 60-cell one-dose antiproliferative screen; format: cell-based, human; conditions: one dose 10 μM
HS 578T (breast cancer) = experiment: NCI 60-cell one-dose antiproliferative screen; format: cell-based, human; conditions: one dose 10 μM
T-47D (breast cancer) = experiment: NCI 60-cell one-dose antiproliferative screen; format: cell-based, human; conditions: one dose 10 μM
[5] = MTT cytotoxicity assay, MCF10a; format: cell-based; conditions: human, MCF10a normal mammary epithelial cells
RPMI-8226 (leukemia) = experiment: NCI 60-cell one-dose antiproliferative screen; format: cell-based, human; conditions: one dose 10 μM
TK-10 (renal cancer) = experiment: NCI 60-cell one-dose antiproliferative screen; format: cell-based, human; conditions: one dose 10 μM
HOP-62 (NSC lung cancer) = experiment: NCI 60-cell one-dose antiproliferative screen; format: cell-based, human; conditions: one dose 10 μM
HCC-2998 (colon cancer) = experiment: NCI 60-cell one-dose antiproliferative screen; format: cell-based, human; conditions: one dose 10 μM
[6] = test system: NCI/ADR-RES (ovarian cancer); experiment: NCI 60-cell one-dose antiproliferative screen; format: cell-based, human; conditions: one dose 10 μM
SK-OV-3 (ovarian cancer) = experiment: NCI 60-cell one-dose antiproliferative screen; format: cell-based, human; conditions: one dose 10 μM
SNB-75 (CNS cancer) = experiment: NCI 60-cell one-dose antiproliferative screen; format: cell-based, human; conditions: one dose 10 μM
HOP-92 (NSC lung cancer) = experiment: NCI 60-cell one-dose antiproliferative screen; format: cell-based, human; conditions: one dose 10 μM
SF-295 (CNS cancer) = experiment: NCI 60-cell one-dose antiproliferative screen; format: cell-based, human; conditions: one dose 10 μM
KM12 (colon cancer) = experiment: NCI 60-cell one-dose antiproliferative screen; format: cell-based, human; conditions: one dose 10 μM
CCRF-CEM (leukemia) = experiment: NCI 60-cell one-dose antiproliferative screen; format: cell-based, human; conditions: one dose 10 μM
M14 (melanoma) = experiment: NCI 60-cell one-dose antiproliferative screen; format: cell-based, human; conditions: one dose 10 μM
ACHN (renal cancer) = experiment: NCI 60-cell one-dose antiproliferative screen; format: cell-based, human; conditions: one dose 10 μM
UO-31 (renal cancer) = experiment: NCI 60-cell one-dose antiproliferative screen; format: cell-based, human; conditions: one dose 10 μM
IGROV1 (ovarian cancer) = experiment: NCI 60-cell one-dose antiproliferative screen; format: cell-based, human; conditions: one dose 10 μM
RXF 393 (renal cancer) = experiment: NCI 60-cell one-dose antiproliferative screen; format: cell-based, human; conditions: one dose 10 μM
OVCAR-4 (ovarian cancer) = experiment: NCI 60-cell one-dose antiproliferative screen; format: cell-based, human; conditions: one dose 10 μM
[7] = test system: NCI-H460 (NSC lung cancer); experiment: NCI 60-cell one-dose antiproliferative screen; format: cell-based, human; conditions: one dose 10 μM
p-PI3K = experiment: Phosphorylated PI3K ELISA in MCF7 cells; format: cell-based, human; conditions: 4g at its IC50 0.56 μM, compared to untreated MCF7 cells
A498 (renal cancer) = experiment: NCI 60-cell one-dose antiproliferative screen; format: cell-based, human; conditions: one dose 10 μM
[8] = test system: breast cancer cell line MCF7; experiment: MTT cytotoxicity assay, MCF7; format: cell-based, human
OVCAR-8 (ovarian cancer) = experiment: NCI 60-cell one-dose antiproliferative screen; format: cell-based, human; conditions: one dose 10 μM
[9] = test system: NCI-H226 (NSC lung cancer); experiment: NCI 60-cell one-dose antiproliferative screen; format: cell-based, human; conditions: one dose 10 μM
SF-268 (CNS cancer) = experiment: NCI 60-cell one-dose antiproliferative screen; format: cell-based, human; conditions: one dose 10 μM
SW-620 (colon cancer) = experiment: NCI 60-cell one-dose antiproliferative screen; format: cell-based, human; conditions: one dose 10 μM
SK-MEL-2 (melanoma) = experiment: NCI 60-cell one-dose antiproliferative screen; format: cell-based, human; conditions: one dose 10 μM
UACC-257 (melanoma) = experiment: NCI 60-cell one-dose antiproliferative screen; format: cell-based, human; conditions: one dose 10 μM
PC-3 (prostate cancer) = experiment: NCI 60-cell one-dose antiproliferative screen; format: cell-based, human; conditions: one dose 10 μM
U251 (CNS cancer) = experiment: NCI 60-cell one-dose antiproliferative screen; format: cell-based, human; conditions: one dose 10 μM
SF-539 (CNS cancer) = experiment: NCI 60-cell one-dose antiproliferative screen; format: cell-based, human; conditions: one dose 10 μM
SNB-19 (CNS cancer) = experiment: NCI 60-cell one-dose antiproliferative screen; format: cell-based, human; conditions: one dose 10 μM
OVCAR-5 (ovarian cancer) = experiment: NCI 60-cell one-dose antiproliferative screen; format: cell-based, human; conditions: one dose 10 μM
[10] = test system: NCI-H322M (NSC lung cancer); experiment: NCI 60-cell one-dose antiproliferative screen; format: cell-based, human; conditions: one dose 10 μM
MCF7 cells [11] = experiment: Annexin V/PI dual staining apoptosis assay; format: cell-based, human; conditions: MCF7, 24 h, 4g at IC50 (0.56 μM)
[12] = MCF7, 4g at IC50 (0.56 μM), 24 h
[13] = MCF7, 4g at IC50 (0.56 μM), relative to DMSO control

Compound: COc1ccc(-c2nnc3ccc(NN=Cc4ccc(O)cc4)nn23)cc1 [Compound 4g, 4-((2-(3-(4-Methoxyphenyl)-[1,2,4]triazolo[4,3-b]pyridazin-6-yl)hydrazono)methyl)phenol]
- %G0-G1 (MCF7 cells [1]; [12]): 52.94%
- %G2/M (MCF7 cells [1]; [12]): 4.13%
- drop in the cell population at G0/G1 phase (MCF7 cells [1]; [13]): 10.48%
- drop in the cell population at G2/M phase (MCF7 cells [1]; [13]): 46.84%
- increase in the proportion of cells in the S phase (MCF7 cells [1]; MCF7, 4g at IC50 (0.56 μM), versus control (DMSO)): 1.29 fold
- cell cycle arrest phase (MCF7 cells [1]; MCF7 cells): arrest in the S stage of the cell cycle; also recorded: arrest in the proliferation of MCF7 cells in the S phase; also recorded: ceased the proliferation of MCF-7 cancer cells in the S phase
- GI% (HT29 (colon cancer)): — (— GI% is below 15%)
- GI% (EKVX (NSC lung cancer)): 62.20%
- GI% (HCT-15 (colon cancer)): 73.30%
- GI% [2]: 53.35%
- inhibition at 10 µM [3]: 55.8%
- GI% (DU-145 (prostate cancer)): 48.11%
- GI% (786-0 (renal cancer)): 77.10%
- GI% [4]: 41.49%
- GI% (HS 578T (breast cancer)): 53.18%
- GI% (T-47D (breast cancer)): 54.64%
- IC50 at 72 h [5]: 10.7 ± 0.56 µM
- GI% (RPMI-8226 (leukemia)): 86.88%
- GI% (TK-10 (renal cancer)): 61.05%
- GI% (HOP-62 (NSC lung cancer)): — (— GI% is below 15%)
- GI% (HCC-2998 (colon cancer)): 85.07%
- GI% [6]: 73.98%
- GI% (SK-OV-3 (ovarian cancer)): — (— GI% is below 15%)
- GI% (SNB-75 (CNS cancer)): 46.38%
- GI% (HOP-92 (NSC lung cancer)): 68.67%
- GI% (SF-295 (CNS cancer)): 56.41%
- GI% (KM12 (colon cancer)): 71.51%
- GI% (CCRF-CEM (leukemia)): 85.88%
- GI% (M14 (melanoma)): 43.64%
- GI% (ACHN (renal cancer)): 56.52%
- GI% (UO-31 (renal cancer)): 69.74%
- GI% (IGROV1 (ovarian cancer)): 60.66%
- GI% (RXF 393 (renal cancer)): 57.34%
- GI% (OVCAR-4 (ovarian cancer)): 52.11%
- GI% [7]: 55.73%
- inhibition of PI3K phosphorylation (p-PI3K): 55.5%
- GI% (A498 (renal cancer)): — (— GI% is below 15%)
- IC50 ([8]; Homo sapiens, MCF7, 72 h, read-out: Cytotoxicity IC50 MCF7): 0.56 ± 0.03 µM
- Selectivity index ([8]; IC50 on normal cells (MCF10a) / IC50 on cancer cells (MCF7)): 19.11
- GI% (OVCAR-8 (ovarian cancer)): 54.60%
- GI% [9]: 22.48%
- GI% (SF-268 (CNS cancer)): 64.19%
- GI% (SW-620 (colon cancer)): 32.85%
- GI% (SK-MEL-2 (melanoma)): 26.79%
- GI% (UACC-257 (melanoma)): 17.70%
- GI% (PC-3 (prostate cancer)): 59.52%
- GI% (U251 (CNS cancer)): 32.41%
- GI% (SF-539 (CNS cancer)): 63.61%
- GI% (SNB-19 (CNS cancer)): 32.46%
- GI% (OVCAR-5 (ovarian cancer)): — (— GI% is below 15%)
- GI% [10]: 38.06%
- Apoptosis Early (MCF7 cells [11]): 25.16%
- Apoptosis Late (MCF7 cells [11]): 18.13%
- Necrosis (MCF7 cells [11]): 5.27%
- increase in the percentage of total apoptosis (MCF7 cells [11]; compared to the control): 29.61 fold

Source: paper PMC11420776 (RSC Advances, 2024)
